Source: patent publication US20060258750A1, “Use of bicyclo[2.2.1]heptane derivatives for the preparation of neuroprotective pharmaceutical compositions” (priority 2003, published 2006)
“Also recorded” adds a separate entry of the source. Marks after values point to notes of the source that are not given here.

Experiments:
Mongolian gerbils = experiment: Global cerebral ischemia (BCO): locomotor activity in symmetrical Y-maze four days after surgery; type: in vivo
Protocol: (§1) In our experiments male Mongolian gerbils weighing 50-80 g were used. Deramciclane was administered at 3×30 mg/kg intraperitoneally 60 min before, 30 and 90 min after surgery. Deramciclane was suspended in 0.4% methyl-cellulose solution. In ether narcosis, the right and left common carotid arteries were exposed through an anterior midline cervical incision and isolated from the vagus nerves and the surrounding tissues. Full arrest of carotid blood flow was achieved by tightening an aneurysm clip for 3 min. During surgery the body temperature of the animals was kept at the individual preoperative level (37.5±0.5° C.) with the help of a heating pad and a heating lamp.
The Mongolian gerbils were placed in the centre of the maze then the number of entries into the three arms was recorded for 5 min. By definition, the animal performed an arm entry when it entered the arm and proceeded at least the distance of its body length. The gerbil was considered to exit the arm when it left it fully. Differences between groups were statistically evaluated by Kruskal-Wallis ANOVA. In case of p<0.05 significance Mann-Whitney U-test was used for paired comparisons.

central 5-HT2A receptors = central 5-HT2A receptors (Homo sapiens, UniProt P28223); details: cited from earlier work
[1] = 10 and 30 mg/kg after oral treatment; cited from earlier work
[2] = single oral dose of 3 mg/kg; cited from earlier work
[3] = 1 and 10 mg/kg after oral administration; cited from earlier work
[4] = single 0.7 mg/kg oral treatment; cited from earlier work
[5] = 1 and 10 mg/kg ip.; cited from earlier work
[6] = test system: hippocampal CA1 pyramidal cell death; experiment: Global cerebral ischemia by 3 min bilateral carotid artery occlusion (BCO): hippocampal CA1 neuronal damage score; type: in vivo, Mongolian gerbils
Protocol: as §1
After behavioural testing the animals were anesthetized with 60 mg/kg i.p. pentobarbital (10 ml/kg) and perfused through the heart first with saline then with a fixative solution containing 0.1% glutaraldehyde, 4% paraformaldehyde, and 0.2% picric acid in 0.1 M phosphate buffer pH 7.4 for 30 min. The brain was removed from the skull and post-fixed for at least 1 week at 4° C. in the same fixative solution.
Alternate coronal sections of 60 μm thickness were cut from different levels of the dorsal hippocampus by a microtone. The sections were repeatedly washed in 0.1 M phosphate buffer then stained by silver impregnation.
The sections were examined under light microscopy and the overall neuronal damage in the hippocampal CA1 subfield in both hippocampi was scored on a 6-point scale: (0) undamaged, (1)<10%, (2) 10-30%, (3) 30-50%, (4) 50-70%, (5) 70-90%, and (6) 90-100% cell loss. Group differences between drug-treated and vehicle-treated groups were statistically analysed by Mann-Whitney U-test.

central 5-HT2C receptors = central 5-HT2C receptors (Homo sapiens, UniProt P28335); details: cited from earlier work
[7] = cited from earlier work
[8] = test system: brain damage after transient global cerebral ischaemia; details: global cerebral ischaemia in gerbils; cited from earlier work
[9] = 3 × 30 mg/kg i.p., compared to the BCO group
[10] = in the applied dose (3 × 30 mg/kg i.p.)

Sequence of central 5-HT2C receptors (P28335 33-458): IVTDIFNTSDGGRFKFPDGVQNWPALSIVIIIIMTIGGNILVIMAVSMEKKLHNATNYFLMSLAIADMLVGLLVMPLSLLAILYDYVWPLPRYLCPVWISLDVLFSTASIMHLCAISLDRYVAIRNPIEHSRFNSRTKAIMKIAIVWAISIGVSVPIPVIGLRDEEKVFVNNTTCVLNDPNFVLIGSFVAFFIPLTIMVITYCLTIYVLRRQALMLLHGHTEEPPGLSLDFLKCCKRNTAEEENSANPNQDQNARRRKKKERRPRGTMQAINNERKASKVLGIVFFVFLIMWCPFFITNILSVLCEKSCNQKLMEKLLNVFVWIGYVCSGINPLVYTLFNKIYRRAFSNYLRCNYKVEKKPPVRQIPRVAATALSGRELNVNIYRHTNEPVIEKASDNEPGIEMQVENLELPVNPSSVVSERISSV
Sequence of central 5-HT2A receptors (P28223 whole entry): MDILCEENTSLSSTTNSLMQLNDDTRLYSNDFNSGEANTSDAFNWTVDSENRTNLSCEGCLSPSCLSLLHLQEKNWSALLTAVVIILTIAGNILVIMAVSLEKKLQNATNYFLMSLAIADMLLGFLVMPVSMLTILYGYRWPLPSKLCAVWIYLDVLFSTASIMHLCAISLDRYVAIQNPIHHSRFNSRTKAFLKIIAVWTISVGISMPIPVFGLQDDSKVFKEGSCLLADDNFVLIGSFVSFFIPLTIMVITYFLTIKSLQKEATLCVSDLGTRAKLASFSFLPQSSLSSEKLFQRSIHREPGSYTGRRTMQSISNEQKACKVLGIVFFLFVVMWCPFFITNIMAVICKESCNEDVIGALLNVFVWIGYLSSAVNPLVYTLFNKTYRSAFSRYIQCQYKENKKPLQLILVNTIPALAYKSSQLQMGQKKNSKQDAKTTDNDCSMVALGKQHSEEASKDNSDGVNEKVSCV

Q: Which results are given for `CN(C)CCO[C@]1(c2ccccc2)C[C@H]2CC[C@]1(C)C2(C)C` [deramciclane, (1R,2S,4R)-(−)-2-(2-dimethylaminoethoxy)-2-phenyl-1,7,7-trimethyl-bicyclo[2.2.1]heptane]?
A: Number of arm entries (Mongolian gerbils; 3 × 30 mg/kg i.p., Y-maze, 5 min, four days after surgery, sham 40.25, BCO 65.44): 38.78**; Effect % (number of arm entries) (Mongolian gerbils; [9]): −100%; locomotor activity of animals (in words) (Mongolian gerbils; [10]): decreased the locomotor activity of animals into the normal range; binding to central 5-HT2A receptors (in words) (central 5-HT2A receptors): binds primarily; activity in marble burying test [1]: active; activity in light-dark test [2]: active; activity in Vogel punished drinking test [3]: active; time spent with social interactions [4]: increased; antidepressant activity in learned helplessness test [5]: produced antidepressant activity; CA1 cell death (score) ([6]; 3 × 30 mg/kg i.p. (60 min before, 30 and 90 min after surgery), 6-point scale 0-6, BCO control 4.90): 0.89** score; Effect % (CA1 cell death) [6, 9]: −82%; proportion of cell death in the hippocampal CA1 region (in words) [6, 10]: significantly reduced; binding to central 5-HT2C receptors (in words) (central 5-HT2C receptors): binds primarily; anxiety caused by CCK in elevated plus maze test ([7]; CCK-induced anxiety): antagonized; activity in elevated plus maze test ([7]; in vivo): ineffective

Q: Which neuroprotective activity [8] does the source give for `Cc1nc2sccn2c(=O)c1CCN1CCC(=C(c2ccc(F)cc2)c2ccc(F)cc2)CC1` [ritanserin] here?
A: did not show neuroprotective activity; also recorded: did not produce neuroprotective effect
